Data as given in patent US10683286B2, “Furazan-3-carboxylic acid derivatives and use thereof in treatment of cancer” (FREIE UNIVERSITAET BERLIN, priority 2016, dated 2020).
Where two headings read alike, the source gives them in different places. Where a SMILES comes first, the peptide text is derived from it. [ ]: non-standard residue; d: D form. The star is where a group is joined. 5FAM = O=C1OC2(c3ccc(O)cc3Oc3cc(O)ccc32)c2ccc(C(=O)*)cc21; pY = N[C@@H](Cc1ccc(OP(=O)(O)O)cc1)C(=O)O

Tests used:
BaF3/FLT3-ITD cells = test: Cell proliferation assay (Alamar blue); type: cell-based, murine
Description: Having proven the functional inhibition of STAT5 as a transcription factor, the effect of STAT5 inhibitors on the proliferation of cancer cells carrying the common FLT3-ITD mutation was investigated. Cells were incubated for 48 h and cell proliferation was quantified by the Alamar blue assay (FIG. 5). […] For comparison, we have tested both compounds on non-STAT5-dependent cell lines and the cytotoxicity effect were negligible up to 500 μM. (FIG. S9).
The effect of compounds on cell lines was evaluated by In Vitro Toxicology Assay Kit, Resazurin based with indicator dye Alamar Blue (Sigma). Adherent and suspension cells were plated at 5×10^3 per well and 1×10^4 per well respectively in triplicate in 96-well plates and incubated in medium containing 10% FBS. For adherent cell, the complete medium was replaced after 24 hours and incubated with test medium containing vehicle control or serial concentration of compounds for 48 hours at 37° C. The remaining wells in the periphery of the microtiter well plate were added PBS and not used to avoid evaporation effects. Alamar Blue was then added, and all plates were incubated at 37° C., and a colorimetric change was measured according to the methods provided by the provided protocol.

STAT5b-SH2 domain = biological target: T1, STAT5b-SH2 domain (Homo sapiens, UniProt P51692); test: Competitive fluorescence polarization (FP) assay, STAT5b-SH2 domain; conditions: for activity / binding to the STAT5-SH2 domain: in words
T1 sequence (P51692 136-703): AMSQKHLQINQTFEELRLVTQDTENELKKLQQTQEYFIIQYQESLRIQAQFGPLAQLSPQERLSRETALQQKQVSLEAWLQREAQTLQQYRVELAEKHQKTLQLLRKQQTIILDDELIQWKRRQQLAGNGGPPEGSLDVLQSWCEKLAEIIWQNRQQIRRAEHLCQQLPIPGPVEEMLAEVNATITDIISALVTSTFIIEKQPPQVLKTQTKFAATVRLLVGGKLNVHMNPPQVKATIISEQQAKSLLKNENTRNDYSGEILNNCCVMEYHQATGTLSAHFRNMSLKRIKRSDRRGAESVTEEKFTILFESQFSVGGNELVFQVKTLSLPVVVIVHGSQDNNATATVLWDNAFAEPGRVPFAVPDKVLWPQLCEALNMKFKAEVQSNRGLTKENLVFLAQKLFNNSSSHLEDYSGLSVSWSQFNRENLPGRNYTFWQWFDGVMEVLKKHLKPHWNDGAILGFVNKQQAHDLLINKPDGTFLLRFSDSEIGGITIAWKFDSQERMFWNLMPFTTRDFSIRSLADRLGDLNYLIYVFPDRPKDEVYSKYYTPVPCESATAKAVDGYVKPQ
Description: The ChemBioNet fragment collection composed in accordance with the substructure composition of the World Drug Index (WDI) was screened both for enhancing and inhibiting fragments of the phosphopeptide-STAT5 interaction.
The clone for Stat5b expression was kindly provided by Thorsten Berg (MPI, Martinsried). Expression of that truncated version of Stat5b (aa 136-703) cloned into a modified pQE70, with N-terminal MBP-tag and C-terminal His-tag was conducted on autoinduction medium (overnight express/Novagen). Cells were grown to an optical density (O.D.) of 0.3 at 37° C., then the temperature was reduced to 20° C. for further 48 h of expression. […] The protein was purified by Ni-chelating chromatography followed by gel filtration (Superdex 200/10 mM HEPES pH 7.8, 100 mM NaCl, 1 mM EDTA, 1 mM DTT, 10% glycerol). A yield of 15 mg MBP-Stat5b-His per liter of culture was obtained and aliquots (200 μl of 3.2 mg/ml) were quick-frozen and stored at −80° C., ready for use.
17000 compounds from the (FMP) ChemBioNet library were tested in a competitive-based fluorescence polarization (FP) assay to investigate the ability of compounds to bind to STAT5b-SH2 domain by displacing respective fluorophore-labeled peptides (5-carboxyfluorescein-GY (PO3H2) LSLPPW-NH2). The peptide purity was >95% and the screening were performed at room temperature. The final concentration of buffer components used was 10 mM HEPES (pH 7.5), 1 mM EDTA, 0.1% Igepal CA-630, 50 mM NaCl, and 5% DMSO. The final concentration of protein used was at 65 nM which correspond to the dissociation constants (Kd) for the individual protein-peptide interactions in assay buffer. The protein was first added to the black 384 well plate (Corning 3676) followed by test compounds and fluorophore-labeled peptide. The plates were centrifuged, and measured using Safire^2 well plate reader (Tecan, Crailsheim, Germany) after 15 minutes incubation at room temperature. […] For the analysis of the data GraphPad Prism 5 was used. Ligand efficiencies (LE) were calculated using equation derived as followed. LE=−ΔG°/HA with (ΔG°) is the standard free energy of binding in KJ and HA is the number of non-hydrogen atoms.

SMILES | cellular activity (cell proliferation curves, FIG. 8) (BaF3/FLT3-ITD cells) | Ki (STAT5b-SH2 domain) [µM] | LE (STAT5b-SH2 domain) | also measured
O=C(O)c1nonc1NCn1nnnc1COc1ccccc1 [Compound 100] | significant cellular activity |  |  | 
CC(C)C[C@H](NC(=O)[C@H](Cc1ccc(OP(=O)(O)O)cc1)NC(=O)CNC(=O)c1ccc2c(c1)C(=O)OC21c2ccc(O)cc2Oc2cc(O)ccc21)C(=O)N[C@@H](CO)C(=O)N[C@@H](CC(C)C)C(=O)N1CCC[C@H]1C(=O)N1CCC[C@H]1C(=O)N[C@@H](Cc1c[nH]c2ccccc12)C(N)=O [Compound 2, Fluo-GY*LSLPPW-NH2, reference compound] (5FAM-G[pY]LSLPPW-NH2) |  | 0.055 ± 0.006 |  | Kd (STAT5b-SH2 domain): 0.055 µM; LE (STAT5b-SH2 domain; Table 1, ligand efficiency): 0.42 kJ/mol* atom#
O=C(O)c1nonc1NCn1nnnc1Cc1ccc(F)cc1 [Compound 31] |  | 7.2 ± 1.9 | 1.28 | 
COC(=O)c1nonc1NCn1nnnc1-c1cccc(O)c1 [Compound 24] |  | 22.3 ± 3 | 1.21 | 
O=C(O)c1nonc1NCn1nnnc1Cc1cccc(F)c1 [Compound 178] | significant cellular activity |  |  | 
COC(=O)c1nonc1NC(=O)Cn1cnnn1 [Compound 14] |  | > 500 |  | activity / binding to the STAT5-SH2 domain (STAT5b-SH2 domain): abolished the activity
O=C(O)c1nonc1NCn1nnnc1-c1cccc(C(F)(F)F)c1 [Compound 21] |  | 0.86 ± 0.05 | 1.38 | Kd (STAT5b-SH2 domain): 0.86 µM
O=C(O)c1nonc1NCn1nnnc1CCc1ccccc1 [Compound 169] | significant cellular activity |  |  | 
Cc1ccc(Cc2nnnn2CNc2nonc2C(=O)O)cc1 [Compound 174] | significant cellular activity |  |  | 
O=C(O)c1nonc1NCn1nnnc1Cc1cccc(Cl)c1 [Compound 173] | significant cellular activity |  |  | 
O=C(O)c1nonc1NCn1cncn1 [Compound 10] |  | 47.5 ± 8.5 |  | LE (STAT5b-SH2 domain; Table 1, ligand efficiency): 1.64 kJ/mol* atom#; activity / binding to the STAT5-SH2 domain (STAT5b-SH2 domain): completely inactive
COC(=O)c1nonc1NCn1nnnc1-c1ccccc1 [Compound 17] |  | 37.1 ± 6 | 1.15 | Kd (STAT5b-SH2 domain): 37 µM
O=C(O)c1nonc1NCn1nnnc1COCCc1ccccc1 [Compound 113] | significant cellular activity |  |  | 
COC(=O)c1nonc1NCn1nnnc1-c1cccc(NS(C)(=O)=O)c1 [Compound 23] |  | 18.3 ± 2.4 | 1.00 | 
c1nnn[nH]1 [Compound 5, 1H-tetrazole, reference compound] |  |  |  | Ki (STAT5b-SH2 domain; Table 1, inhibitors of STAT5b, KI converted from IC50): > 500 µM; activity / binding to the STAT5-SH2 domain (STAT5b-SH2 domain): inactive
O=C(O)c1nonc1NCn1ccnn1 [Compound 9] |  | 191 ± 24 |  | LE (STAT5b-SH2 domain; Table 1, ligand efficiency): 1.41 kJ/mol* atom#; activity / binding to the STAT5-SH2 domain (STAT5b-SH2 domain): completely inactive
COc1ccc(Cc2nnnn2CNc2nonc2C(=O)O)cc1 [Compound 177] | significant cellular activity |  |  | 
O=C(O)c1nonc1NCn1nnnc1COCc1ccccc1 [Compound 108] | significant cellular activity |  |  | 
O=Cc1ccc(OP(=O)(O)O)cc1 [Compound 1, 4-Formylphenyl-dihydrogen-phosphate, reference compound] |  | > 500 |  | 
O=C(O)c1nonc1NCn1nnnc1-c1cccc(OCc2ccccc2)c1 [Compound 19] |  | 1.2 ± 0.5 | 1.16 | 
